Source: article PMC8360864, “Benzylmalonyl-CoA dehydrogenase, an enzyme involved in bacterial auxin degradation” (Archives of Microbiology, 2021)

T1: Benzylmalonyl-CoA dehydrogenase (IaaF) (Aromatoleum aromaticum, UniProt Q5P5Z9)
T1 construct: fusion protein of IaaF with a N-terminal Strep-tag
T1 sequence (Q5P5Z9 1-377): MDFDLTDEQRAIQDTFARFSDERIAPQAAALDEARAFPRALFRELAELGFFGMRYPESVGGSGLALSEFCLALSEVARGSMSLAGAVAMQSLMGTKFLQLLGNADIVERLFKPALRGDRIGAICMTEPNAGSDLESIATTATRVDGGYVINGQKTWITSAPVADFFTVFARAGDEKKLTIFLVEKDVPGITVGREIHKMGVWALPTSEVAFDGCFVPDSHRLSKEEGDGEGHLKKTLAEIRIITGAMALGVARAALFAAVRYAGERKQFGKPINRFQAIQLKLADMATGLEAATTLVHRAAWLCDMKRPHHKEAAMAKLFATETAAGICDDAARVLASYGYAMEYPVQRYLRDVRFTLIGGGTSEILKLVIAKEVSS


Legend:
[1] = target: T1, Benzylmalonyl-CoA dehydrogenase (IaaF); test: product formation by HPLC and UV-Vis with purified enzyme; assay type: biochemical
purified protein = substrate: CC(C)(COP(=O)(O)OP(=O)(O)OC[C@H]1O[C@@H](n2cnc3c(N)ncnc32)[C@H](O)[C@@H]1OP(=O)(O)O)[C@@H](O)C(=O)NCCC(=O)NCCSC(=O)C(Cc1ccccc1)C(=O)O; test: purified protein; assay type: biochemical, Aromatoleum aromaticum; settings: FAD active site (GGG motif replacing YEG) proposed

Molecule	product formation by HPLC and UV-Vis with purified enzyme [1]	Km (purified protein) [µM]
CC(C)(COP(=O)(O)OP(=O)(O)OC[C@H]1O[C@@H](n2cnc3c(N)ncnc32)[C@H](O)[C@@H]1OP(=O)(O)O)[C@@H](O)C(=O)NCCC(=O)NCCSC(=O)/C=C/c1ccccc1 [cinnamoyl-CoA]	formation of a new CoA-thioester over time which was identified as cinnamoyl-CoA by its UV–Vis spectrum	–
Benzylmalonyl-CoA dehydrogenase (IaaF) (Aromatoleum aromaticum EbN1) (protein, fusion protein of IaaF with a N-terminal Strep-tag) MDFDLTDEQRAIQDTFARFSDERIAPQAAALDEARAFPRALFRELAELGFFGMRYPESVGGSGLALSEFCLALSEVARGSMSLAGAVAMQSLMGTKFLQLLGNADIVERLFKPALRGDRIGAICMTEPNAGSDLESIATTATRVDGGYVINGQKTWITSAPVADFFTVFARAGDEKKLTIFLVEKDVPGITVGREIHKMGVWALPTSEVAFDGCFVPDSHRLSKEEGDGEGHLKKTLAEIRIITGAMALGVARAALFAAVRYAGERKQFGKPINRFQAIQLKLADMATGLEAATTLVHRAAWLCDMKRPHHKEAAMAKLFATETAAGICDDAARVLASYGYAMEYPVQRYLRDVRFTLIGGGTSEILKLVIAKEVSS	–	1.6 ± 0.3
